Reference: ChEMBL document CHEMBL3217595, “RCAI-133, an N-methylated analogue of KRN7000, activates mouse natural killer T cells to produce Th2-biased cytokines” (2013)
Active and inactive are the calls of the source. No cut-off for these calls is given here.

Legend:
[1] = test system: Mus musculus; assay: Immunostimulatory activity in C57BL/6 mouse assessed as induction of IL-4 production in serum at 2 ug, iv administered through PBS solution; assay type: functional, organism-based
[2] = test system: Mus musculus; assay: Immunostimulatory activity in C57BL/6 mouse assessed as induction of IFN-gamma production in serum at 2 ug, iv administered through PBS solution by ELISA; assay type: functional, organism-based
[3] = test system: Mus musculus; assay: Immunostimulatory activity in C57BL/6 mouse assessed as induction of IL-4/IFN-gamma ratio in serum at 2 ug, iv administered through PBS solution; assay type: functional

CCCCCCCCCCCCCCCC[C@@H](O)C(=O)N(C)[C@@H](CO[C@H]1O[C@H](CO)[C@H](O)[C@H](O)[C@H]1O)[C@H](O)[C@H](O)CCCCCCCCCCCCCC
Activity [1]: inactive | Activity [2]: inactive

CCCCCCCCCCCCCCCCCC(=O)N(C)[C@@H](CO[C@H]1O[C@H](CO)[C@H](O)[C@H](O)[C@H]1O)[C@H](O)[C@H](O)CCCCCCCCCCCCCC
Ratio [3]: 0.0095 | Activity [1]: inactive | Activity [2]: inactive

CCCCCCCCCCCCCCCCCCCCCCCCCC(=O)N[C@@H](CO[C@H]1O[C@H](CO)[C@H](O)[C@H](O)[C@H]1O)[C@H](O)[C@H](O)CCCCCCCCCCCCCC [RGI-7000]
Ratio [3]: 0.0043

CCCCCCCCCCCCCCCCC(C)(C)C(=O)N[C@@H](CO[C@H]1O[C@H](CO)[C@H](O)[C@H](O)[C@H]1O)[C@H](O)[C@H](O)CCCCCCCCCCCCCC
Activity [1]: Active | Activity [2]: Active

CCCCCCCCCCCCCCCCCC(=O)N[C@@H](CO[C@H]1O[C@H](CO)[C@H](O)[C@H](O)[C@H]1O)[C@H](O)[C@H](O)CCCCCCCCCCCCCC
Activity [1]: Active | Activity [2]: Active

CCCCCCCCCCCCCCCCC(C)(C)C(=O)N(C)[C@@H](CO[C@H]1O[C@H](CO)[C@H](O)[C@H](O)[C@H]1O)[C@H](O)[C@H](O)CCCCCCCCCCCCCC
Activity [1]: inactive | Activity [2]: inactive

CCCCCCCCCCCCCCCC[C@@H](O)C(=O)N[C@@H](CO[C@H]1O[C@H](CO)[C@H](O)[C@H](O)[C@H]1O)[C@H](O)[C@H](O)CCCCCCCCCCCCCC
Activity [1]: Active | Activity [2]: Active

CCCCCCCCCCCCCCCCCCCCCCCCCC(=O)N(C)[C@@H](CO[C@H]1O[C@H](CO)[C@H](O)[C@H](O)[C@H]1O)[C@H](O)[C@H](O)CCCCCCCCCCCCCC
Ratio [3]: 0.017

CCCCCCCCCCCCCCCC[C@@H](C)C(=O)N(C)[C@@H](CO[C@H]1O[C@H](CO)[C@H](O)[C@H](O)[C@H]1O)[C@H](O)[C@H](O)CCCCCCCCCCCCCC
Activity [1]: inactive | Activity [2]: inactive

CCCCCCCCCCCCCCCC[C@@H](C)C(=O)N[C@@H](CO[C@H]1O[C@H](CO)[C@H](O)[C@H](O)[C@H]1O)[C@H](O)[C@H](O)CCCCCCCCCCCCCC
Activity [1]: Active | Activity [2]: Active
